How the values were obtained:
CH24H = target: T1, CH24H (Homo sapiens, UniProt Q9Y6A2); assay: PK/PD (PK/OE/24HC) turnover modeling; settings: turnover model estimate
T1 construct: from tissue; host or cells: brain of living human trial subjects (in vivo)
Text: Similar to the PK model, the PK/PD model was developed as a population mixed-effects model and incorporated the individual PK parameters from the final PK population model. A turnover model was used to characterize changes in plasma 24HC overtime. Plasma 24HC was considered to be at steady-state baseline (BL) before the start of treatment. […] PK/PD covariates were screened in a procedure similar to the PK covariates. In the final PK/PD model, two covariates, A1-AGLP and body weight affected baseline 24HC.
The PK/PD analysis dataset consisted of 2165 24HC observations from 3 phase I trials. Four subjects from the ELEKTRA study with large IC50 estimates were excluded from the dataset. Additionally, 42 individuals with large conditional weighted residuals were excluded from the dataset. The final dataset contained 2107 24HC observations from 248 subjects. Table 26 summarizes the modeling dataset with reference to example numbers, respective clinical trial ID, subject numbers, regimen, and number of observations and doses. Tables 27 and 28 summarize the categorical covariates used in PK/OE/24HC analysis from the entire dataset and the ELEKTRA study subset, respectively.
Tables 29 and 30 summarize the mean continuous variables used in the PK/OE/24HC covariate analysis from the entire PK/OE/24HC population studied and the ELEKTRA subset, respectively. In addition to the shared variables, the PK/PD dataset contained the individual final estimates of the population PK model parameters (IND_ALAG1, IND_KA, IND_CL, IND_V2, IND_Q, IND_V3, and IND_F1). Subjects without individual PK parameter estimates (e.g. subjects from the placebo arms) were assigned to the respective geometric mean of the estimated individual parameter values.
A turnover model was used to describe changes in 24HC concentration over time. […] The following formula estimates change in 24HC: […]
The indirect exposure effect (EFF) was estimated by an Imax model:
The effect-site concentration was implemented as a delayed equilibrium with the plasma/brain transit rate parameter (KPLBR):
The scaling parameter KPLBR was previously estimated in a competitive enzyme occupancy model derived from PET brain imaging data (NCT02497235, Table 19). Parameters derived from this base model were fixed at their previous final PK population estimates derived from example 12. However, no random effects could be estimated without enzyme occupancy data. FIG. 26 depicts the basic model structure in relation to observed and unobserved data. There was a strong growth-related increase in baseline 24HC levels, which was only observed in young subjects.
The following variables were screened by forward inclusion, backward exclusion F-tests: • Growth/maturity: Weight, BMI, and age • Protein binding: Albumin (ALB), A1-AGLP • Liver function: AST, ALT, GGT, and ALP • Kidney function: Creatinine clearance (CRCL), eGFR • Categorical variables: Asian, sex. Ethnicity, and disease type

[1] = Relative stability of crystalline polymorphs; type: physicochemical; settings: Form II compared with Form I

T1 sequence (Q9Y6A2 whole entry): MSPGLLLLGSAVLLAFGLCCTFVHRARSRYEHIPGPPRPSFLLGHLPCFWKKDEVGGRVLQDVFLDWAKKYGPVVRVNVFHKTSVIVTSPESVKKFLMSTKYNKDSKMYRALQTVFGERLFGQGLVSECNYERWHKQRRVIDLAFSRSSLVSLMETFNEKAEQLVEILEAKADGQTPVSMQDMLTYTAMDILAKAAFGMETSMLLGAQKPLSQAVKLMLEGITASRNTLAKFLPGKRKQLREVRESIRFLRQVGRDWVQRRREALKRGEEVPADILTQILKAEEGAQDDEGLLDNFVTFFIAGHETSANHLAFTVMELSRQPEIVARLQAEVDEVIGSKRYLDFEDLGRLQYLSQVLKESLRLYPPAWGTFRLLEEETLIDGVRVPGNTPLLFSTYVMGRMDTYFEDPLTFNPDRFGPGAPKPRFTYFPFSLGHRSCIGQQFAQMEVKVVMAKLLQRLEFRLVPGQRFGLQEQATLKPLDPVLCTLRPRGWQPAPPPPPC

Structure (SMILES): CC(C)C(O)CC[C@@H](C)[C@H]1CC[C@H]2[C@@H]3CC=C4C[C@@H](O)CC[C@]4(C)[C@H]3CC[C@]12C (stereo partly drawn) [24HC, 24-hydroxycholesterol]
- 24HC elimination rate (KOUT) (CH24H): 0.02 ng/mL/h
- 24HC synthesis rate (KIN) (CH24H): 1.09 h⁻¹

Structure (SMILES): O=C(c1cccnc1-c1ccncc1)N1CCC(O)(Cc2ccccc2)CC1 [Form II, (4-benzyl-4-hydroxypiperidin-1-yl) (2,4′-bipyridin-3-yl) methanone]
- polymorph stability [1]: more stable than Form I
